Legend:
Assay type in all cases: in vivo, human
[1] = Single dose ASA pharmacokinetics in healthy adults (serial blood samples)
Method: (§1) Healthy adults were randomized to receive single doses of extended release ASA (“ER ASA”) at a dosage of 20 mg, 40 mg, 81 mg, 162.5 mg ER ASA (Durlaza®; New Haven Pharmaceuticals, Inc., North Haven, Conn.), or 325 mg, or immediate release ASA (“IR ASA”; aspirin powder USP; Letco Medical, Decatur, Ala.) at a dosage of 5 mg, 10 mg, 20 mg, 40 mg or 81 mg. […] For pharmacodynamic assessments, serum 11-dehydro-thromboxane (“TxB2”, a stable metabolite of thromboxane A2) levels were assessed using a validated enzyme immunoassay kit in serial blood samples collected 1 hour before dosing and at 0.5, 1, 2, 4, 8, 16, and 24 hours after drug administration.

[2] = test system: serum TxB2 production; assay: Single dose inhibition of serum TxB2 production in healthy adults (enzyme immunoassay); conditions: highest doses: ER ASA 81, 162.5, 325 mg; IR ASA 40, 81 mg
Method: as §1

[3] = test system: platelet aggregation; assay: Light transmittance aggregometry (LTA), AA-, collagen-, ADP-induced, in type II diabetes subjects with vascular disease or CVD risk factors; conditions: trough
Method: High platelet reactivity has previously been implicated in incomplete inhibition during therapy with immediate release low-dose aspirin in patients with type II diabetes. The main study consisted of a run-in phase where subjects were administered 81 mg, everyday (“QD”), of immediate release acetylsalicylic acid (“IR ASA”) for 7-28 days. […] For this study the trough level data are from the following timepoints: (1) for 81 mg—the data at Visit 2; […]

[4] = test system: endothelial function; assay: Reactive hyperemia index (ENDOPAT pulsatile arterial tonometry)
Method: Endothelial function was assessed using the ENDOPAT system ([…] Medical, Israel), a pulsatile arterial tonometry-based diagnostic device, at Visit 2, Visit 3, Visit 5, and Visit 6 predose. The reactive hyperemia index (“RHI”), a measure of endothelial function, and the augmentation index (“AI”), a measure of arterial stiffness, were determined. Endothelial dysfunction is defined as RHI <1.67. Normal arterial stiffness is defined as an AI -30% to -10%, increased arterial stiffness as an AI >-10% to 10%, and abnormal arterial stiffness as an AI >10%. The RHI measures vessel pliability which is a surrogate for nitric oxide production. The production of nitric oxide inhibits platelet aggregation. Thus, determining nitric oxide production following Durlaza® dosing is important to understanding its affect on platelet inhibition.

[5] = test system: High Sensitive C-Reactive Protein (hs-CRP); assay: High Sensitive C-Reactive Protein test (Immulite 2000 Xpi)
Method: Subjects were also measured for high sensitive C-reactive protein (“hs-CRP”) levels at Visit 1, Visit 2, Visit 3 pre-dose, Visit 3 at 24 hours, Visit 6 pre-dose and Visit 6 at 24 hours.
High Sensitive C-Reactive Protein (“hs-CRP”) was measured using a Seimens Immulite 2000® Xpi analyzer (Immulite 2000 is a registered trademark of Siemens Healthcare Diagnostic, Inc.), prior to 162.5 mg ER ASA (Durlaza®) dosing at Visit 2 pre-dose, at Visit 3 pre-dose and Visit 3 at 24-hr post-dose for the 162.5 mg ER ASA (Durlaza®) dose, and at Visit 6 pre-dose and Visit 6 at 24-hr post-dose for the 325 mg ER ASA dose.

[6] = test system: TxB2; assay: Excretion of thromboxane metabolite, urine GC/MS (Example 3)
Method: (§2) Subjects of Group 1 were randomly administered a placebo, 81 mg IR ASA and 162.5 mg IR ASA. Subjects of Group 2 were randomly administered a placebo, 81 mg ER ASA and 162.5 mg ER ASA (Durlaza®). Each subject was prohibited from taking any aspirin for two weeks prior to being administered the randomly chosen drug daily for 1 week followed by a urine collection 24 hours after dosing. This protocol was repeated two additional times. For each urine collection TxB2 and 2, 3-dinor-6-keto-PGF1α (“prostacyclin”) levels were measured using gas chromatography-mass spectrometry (“GC/MS”). Statistical analysis was done using Wilcoxon rank sum test for continuous variables and the Pearson test for categorical variables.

[7] = test system: 2, 3-dinor-6-keto-PGF1α (prostacyclin); assay: Excretion of prostacyclin metabolite, urine GC/MS (Example 3)
Method: as §2

[8] = Visit 2, 81 mg IR QD (vs. Visit 3 pre dose)
[9] = Visit 2, 81 mg IR QD (vs. Visit 6 pre dose)

## CC(=O)Oc1ccccc1C(=O)O [IR ASA, acetylsalicylic acid]
[1]; all doses, single dose
  time required to reach the maximum concentration of ASA: 1 to 2 h
[1]; single dose 40 mg
  AUClast of ASA: 384 ng·h/mL
[1]; single dose 81 mg
  AUClast of ASA: 865 ng·h/mL
[2]
  single dose inhibition of TxB2 production: maintained during a 24-hour period
[3]; [8]
  LTA (%) 2 mM AA (Final), first line so headed: 5 ± 12%
  LTA (%) 2 mM AA (Final), second line so headed: 6 ± 13%
[3]; [9]
  LTA (%) 2 mM AA (Final), first line so headed: 3 ± 2%
  LTA (%) 2 mM AA (Final), second line so headed: 3 ± 2%
[4]; HPT Group, Visit 5, 81 mg IR ASA QD
  subjects with RHI < 1.67 (n, %): 4 (44) n, %
[4]; Visit 2, 81 mg IR ASA QD
  subjects with RHI < 1.67 (n, %): 11 (27.5) n, %
[5]; V2 pre-dose, 81 mg IR ASA
  subjects with hs-CRP >3 mg/L (n, %): 23 (57) n, %
[5]; during 81 mg IR ASA therapy, total study population
  patients meeting the criteria for elevated CRP: 47%
[6]; 81 mg daily
  Bradykinin-stimulated TxB2 levels 4 hours post-dosing, over placebo: significantly reduced
[6]; 81 mg daily for 1 week
  Basal urinary TxB2 levels 24 hours post-dosing, over placebo: significantly reduced
[6]; 162.5 mg daily
  Bradykinin-stimulated TxB2 levels 4 hours post-dosing, over placebo: significantly reduced
[6]; 162.5 mg daily for 1 week
  Basal urinary TxB2 levels 24 hours post-dosing, over placebo: significantly reduced
[6]; 81 vs 162.5 mg
  dose dependence of the effect on TxB2 synthesis: not seen
[7]; 81 mg daily
  Bradykinin-stimulated prostacyclin levels, over placebo: significantly reduced
[7]; 162.5 mg daily
  Bradykinin-stimulated prostacyclin levels, over placebo: significantly reduced

Source: patent publication US20170112858A1, “Extended Release Aspirin” (New Haven Pharmaceuticals, Inc., priority 2015, published 2017)
